Measured values: ChEMBL document CHEMBL1135012, “Reductively activated disulfide prodrugs of paclitaxel” (Bioorg Med Chem Lett, 2002)

Experiments:
[1] = Maximum Tolerated Dose required for the compound to regress the tumors for the Antitumor activity: No effective activity; format: functional
[2] = Compound was evaluated for its cytotoxicity against L2987 lung carcinoma cells; format: functional, cell-based; settings: Homo sapiens
[3] = The half-life period for the release of paclitaxel after cyclization was determined for the compound; format: ADME
[4] = Compound along with dithiothreitol (DTT) was evaluated for its cytotoxicity against L2987 lung carcinoma cells; format: functional, cell-based; settings: Homo sapiens
[5] = Dose required for the compound to elicit the Antitumor activity: No effective activity; format: functional
[6] = Percentage tumor cure rate in when treated with 125 mg/Kg dose in athymic nude mice; format: functional, Mus musculus

T1/2 [3] [min]	SMILES	Dose [1] [mg/kg]	IC50 [2] [µM]	IC50 [4] [nM]	Dose [5] [mg/kg]	Tumor cure [6] [%]
	CC(=O)O[C@H]1C(=O)[C@@]2(C)[C@H]([C@H](OC(=O)c3ccccc3)[C@]3(O)C[C@H](OC(=O)[C@H](O)[C@@H](NC(=O)c4ccccc4)c4ccccc4)C(C)=C1C3(C)C)[C@]1(OC(C)=O)CO[C@@H]1C[C@@H]2O [PACLITAXEL]	30	0.2			
4	CC(=O)O[C@H]1C(=O)[C@@]2(C)[C@H]([C@H](OC(=O)c3ccccc3)[C@]3(O)C[C@H](OC(=O)[C@H](OC(=O)C(C)(C)CCSSc4ccccn4)[C@@H](NC(=O)c4ccccc4)c4ccccc4)C(C)=C1C3(C)C)[C@]1(OC(C)=O)CO[C@@H]1C[C@@H]2O		6.2	200	125	
25	CC(=O)O[C@H]1C(=O)[C@@]2(C)[C@H]([C@H](OC(=O)c3ccccc3)[C@]3(O)C[C@H](OC(=O)[C@H](OC(=O)C(C)(C)CCSSC[C@H](C)C(=O)N4CCC[C@@H]4C(=O)O)[C@@H](NC(=O)c4ccccc4)c4ccccc4)C(C)=C1C3(C)C)[C@]1(OC(C)=O)CO[C@@H]1C[C@@H]2O		130	2300		60
> 60	CC(=O)O[C@H]1C(=O)[C@@]2(C)[C@H]([C@H](OC(=O)c3ccccc3)[C@]3(O)C[C@H](OC(=O)[C@H](OC(=O)C(C)(C)CCSSCC(NC(=O)CCC(N)C(=O)O)C(=O)NCC(=O)O)[C@@H](NC(=O)c4ccccc4)c4ccccc4)C(C)=C1C3(C)C)[C@]1(OC(C)=O)CO[C@@H]1C[C@@H]2O (stereo partly drawn)		10.1	400	150	
12	CC(=O)O[C@H]1C(=O)[C@@]2(C)[C@H]([C@H](OC(=O)c3ccccc3)[C@]3(O)C[C@H](OC(=O)[C@H](OC(=O)C(C)(C)CCSSC4OC(CO)C(O)C(O)C4O)C(NC(=O)c4ccccc4)c4ccccc4)C(C)=C1C3(C)C)[C@]1(OC(C)=O)CO[C@@H]1C[C@@H]2O (stereo partly drawn)		5.7	200	85	
